Results on two compounds are retold here after patent publication US20250129135A1, “Multi-Agonist and Use Thereof” (priority 2021, published 2025).

Starred links: 1 amine or outer side, 2 acyl side, 3 side chain; linkers in the order of their positions; H or OH if unused. Non-standard residues stand in square brackets, D forms with d. Residues, ends and D or L forms follow the SMILES beside them. Groups on a side chain read outwards from the residue. *: point of attachment. C20 diacid = O=C(O)CCCCCCCCCCCCCCCCCCC(=O)*; αMePhe(2-F) = C[C@](N)(Cc1ccccc1F)C(=O)O; γGlu = O=C(O)[C@H](CCC(=O)[*:2])N[*:1]; αMeL = CC(C)C[C@](C)(N)C(=O)O; AEEA = NCCOCCOCC(=O)O; Aib = CC(C)(N)C(=O)O

For series [1], the system named is human primary liver cells. Type of series: cell-based. To be noted: for Rel. A (Relative Activity) on human primary liver cells: relative to GCG. The method in brief: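 Human primary hepatocytes, thawed at 37° C and resuspended in HBSS, exposed to compound for 60 min at room temperature. Detection reagent then added for 60 min before cAMP readout.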
For series [2], the target named is T1, Human GIP R (Homo sapiens, UniProt P48546).
T1 construct: expressed in transfected cells; host or cells: CHO
T1 sequence (P48546 22-466): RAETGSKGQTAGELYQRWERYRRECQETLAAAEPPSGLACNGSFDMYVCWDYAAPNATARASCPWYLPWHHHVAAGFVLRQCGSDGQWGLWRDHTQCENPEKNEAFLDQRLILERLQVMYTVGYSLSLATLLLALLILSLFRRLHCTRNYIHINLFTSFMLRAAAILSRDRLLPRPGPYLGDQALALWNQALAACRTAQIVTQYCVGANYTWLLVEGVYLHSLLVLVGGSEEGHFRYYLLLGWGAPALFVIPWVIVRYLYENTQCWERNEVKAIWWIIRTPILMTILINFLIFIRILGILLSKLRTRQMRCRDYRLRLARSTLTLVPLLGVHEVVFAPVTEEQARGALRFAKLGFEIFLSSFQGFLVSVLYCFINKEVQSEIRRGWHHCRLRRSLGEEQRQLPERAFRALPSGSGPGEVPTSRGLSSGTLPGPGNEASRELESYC
The series is described as follows: cAMP (HTRF) activity in CHO cells stably overexpressing GIP receptor. Type of series: cell-based. Particulars: for Human GIP R Rel. A (Relative Activity): EC50 of human GIP / EC50 of compound; for EC50: stable transfected cell cAMP activity, at least 3 independent tests. The method in brief:
(§1)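 Cells in HBSS are exposed to compound for 60 min at room temperature, followed by 60 min with detection reagent. EC50 (nM) is taken from concentration-response curves.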
On the technique in general: Time-resolved FRET reads energy transfer from a long-lived donor to a nearby acceptor.

Series [3] in a line: Rat pharmacokinetics (PK) study. Format: in vivo. Particulars: sc, male SD rats, subcutaneous 30 nmol/kg, plasma. As for the experimental part:
7˜9 weeks old male SD rats (220-250 g, 3 rats/group) were subjected to subcutaneous injection of 30 nmol/kg compound. After administration, blood was collected through the jugular vein at time points 0.25, 2, 4, 8, 12, 16, 24, 48, 96, 120, and 144 hours. The blood was processed to obtain plasma samples and analyzed using LC-MS/MS. The blood concentration time curve was analyzed using Phoenix WinNonlin version 6.3 software (non compartment model), and PK parameters and half-life were calculated.

Series [4] has as its system 3T3-L1 adipocytes. To be noted: for Rel. A (Relative Activity) on 3T3-L1 adipocyte: relative to GIP. The method in brief: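 Mouse 3T3-L1 preadipocytes were differentiated with IBMX, dexamethasone and insulin for 5 days, then insulin plus 10 uM rosiglitazone for 3 days, then 10% FBS medium for 2–3 days. Mature adipocytes received 10-point, 3-fold compound dilutions for 60 min at room temperature. cAMP was read by kit detection reagent after a further 60 min, with concentration-effect curves fitted.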

In series [5] the target is Human GLP-1R (Homo sapiens, UniProt P43220). The series is described as follows: cAMP (HTRF) activity in HEK-293 cells stably overexpressing human GLP-1 receptor. Further details: expressed in transfected cells; host or cells: HEK-293. Format: cell-based. To be noted: for Human GLP-1R Rel. A (Relative Activity): EC50 of human GLP-1 (7-37) / EC50 of compound; for EC50: stable transfected cell cAMP activity, at least 3 independent tests. The method, boiled down: as §1

The subject of series [6] is RIN-m5F cells. Type of series: cell-based, rat. Particulars: for Rel. A (Relative Activity) on RIN-m5F: relative to GLP-1(7-37). The method in brief: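 cAMP production measured in RIN-m5F cells resuspended in HBSS; compounds incubated 60 min at room temperature, then detection reagent added for a further 60 min before read-out.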

Human GLP-1R, sequence (P43220 24-463): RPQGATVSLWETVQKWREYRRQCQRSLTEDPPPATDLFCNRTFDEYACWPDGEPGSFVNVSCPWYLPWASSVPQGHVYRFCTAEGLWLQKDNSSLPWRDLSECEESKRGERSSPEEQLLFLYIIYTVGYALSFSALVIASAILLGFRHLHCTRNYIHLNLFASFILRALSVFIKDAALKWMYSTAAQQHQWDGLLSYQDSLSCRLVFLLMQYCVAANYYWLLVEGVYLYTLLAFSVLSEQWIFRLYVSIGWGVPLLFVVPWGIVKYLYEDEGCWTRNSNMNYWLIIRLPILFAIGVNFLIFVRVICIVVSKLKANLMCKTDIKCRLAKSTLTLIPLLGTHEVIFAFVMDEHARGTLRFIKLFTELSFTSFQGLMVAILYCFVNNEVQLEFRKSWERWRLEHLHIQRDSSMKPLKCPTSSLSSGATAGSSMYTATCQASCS

In general, EC50 refers to the concentration at which the effect is half-maximal. The AUC(0-t) is exposure summed from dosing to a finite time, without extrapolation to infinity. Lower therefore signals low exposure. Usually Cmax stands for the peak of the concentration-time curve. As usually defined, the Tmax is the time from dosing to the highest level. By half-life is commonly meant the time needed for the level to fall by half in the phase considered. On to `CC[C@H](C)[C@H](NC(=O)[C@H](Cc1ccccc1)NC(=O)[C@H](C)NC(=O)C(C)(C)NC(=O)[C@H](CCC(N)=O)NC(=O)[C@H](C)NC(=O)[C@H](CCCCNC(=O)COCCOCCNC(=O)COCCOCCNC(=O)CC[C@H](NC(=O)CCCCCCCCCCCCCCCCCCC(=O)O)C(=O)O)NC(=O)[C@H](CCCCN)NC(=O)[C@H](CC(=O)O)NC(=O)[C@H](CC(C)C)NC(=O)[C@H](Cc1ccccc1)NC(=O)[C@@H](NC(=O)[C@H](CO)NC(=O)[C@H](Cc1ccc(O)cc1)NC(=O)[C@H](CC(=O)O)NC(=O)[C@H](CO)NC(=O)[C@@H](NC(=O)[C@](C)(Cc1ccccc1F)NC(=O)[C@@H](NC(=O)CNC(=O)[C@H](CCC(N)=O)NC(=O)C(C)(C)NC(=O)[C@@H](N)Cc1ccc(O)cc1)[C@@H](C)O)[C@@H](C)O)[C@@H](C)CC)C(=O)N[C@@H](CCC(=O)O)C(=O)N[C@@H](Cc1ccc(O)cc1)C(=O)N[C@@H](CC(C)C)C(=O)N[C@@H](CC(C)C)C(=O)N[C@@H](CCC(=O)O)C(=O)NC(C)(C)C(=O)N[C@@H](Cc1c[nH]cn1)C(=O)N1CCC[C@H]1C(=O)N[C@@H](CO)C(=O)N[C@@H](CO)C(=O)NCC(=O)N[C@@H](C)C(=O)N1CCC[C@H]1C(=O)N1CCC[C@H]1C(=O)N1CCC[C@H]1C(=O)N[C@@H](CO)C(N)=O` [Compound 18], for which, in series [1], the EC50 was 0.622 nM and the “Rel. A (Relative Activity) on human primary liver cells” value was 625.56%. For the same compound, in series [2], the “Human GIP R Rel. A (Relative Activity)” value stood at 861.90% and the EC50 came out at 0.021 nM. In addition, in series [3], the exposure AUC(0-t) was 3.01 µM·h, the maximum concentration (Cmax) is 62.8 nM, the time of peak concentration (Tmax) was found to be 16 h and the half-life was 15.6 h. Besides, in series [4], the EC50 was found to be 1.99 nM and the “Rel. A (Relative Activity) on 3T3-L1 adipocyte” value amounted to 191.34%. In series [5], the “Human GLP-1R Rel. A (Relative Activity)” value stood at 366.67% and the EC50 stood at 0.012 nM. Besides, in series [6], the response was half-maximal at 0.214 nM (EC50) and the “Rel. A (Relative Activity) on RIN-m5F” value is reported as 482.24%.
Regarding `CC[C@H](C)[C@H](NC(=O)[C@H](Cc1ccccc1)NC(=O)[C@H](C)NC(=O)C(C)(C)NC(=O)[C@H](CCC(N)=O)NC(=O)[C@H](C)NC(=O)[C@H](CCCCNC(=O)COCCOCCNC(=O)COCCOCCNC(=O)CC[C@H](NC(=O)CCCCCCCCCCCCCCCCCCC(=O)O)C(=O)O)NC(=O)[C@H](CCCCN)NC(=O)[C@H](CC(=O)O)NC(=O)[C@H](CC(C)C)NC(=O)[C@](C)(CC(C)C)NC(=O)[C@@H](NC(=O)[C@H](CO)NC(=O)[C@H](Cc1ccc(O)cc1)NC(=O)[C@H](CC(=O)O)NC(=O)[C@H](CO)NC(=O)[C@@H](NC(=O)[C@](C)(Cc1ccccc1F)NC(=O)[C@@H](NC(=O)CNC(=O)[C@H](CCC(N)=O)NC(=O)C(C)(C)NC(=O)[C@@H](N)Cc1ccc(O)cc1)[C@@H](C)O)[C@@H](C)O)[C@@H](C)CC)C(=O)N[C@@H](CCC(=O)O)C(=O)N[C@@H](Cc1ccccc1)C(=O)N[C@@H](CC(C)C)C(=O)N[C@@H](CC(C)C)C(=O)N[C@@H](CCC(=O)O)C(=O)N[C@H](C(=O)NCC(=O)N1CCC[C@H]1C(=O)N[C@@H](CO)C(=O)N[C@@H](CO)C(=O)NC(C)(C)C(=O)N[C@@H](Cc1c[nH]cn1)C(=O)N1CCC[C@H]1C(=O)N1CCC[C@H]1C(=O)N1CCC[C@H]1C(=O)N[C@@H](CO)C(N)=O)[C@@H](C)O` [Compound 38] (H-Y[Aib]QGT[αMePhe(2-F)]TSDYSI[αMeL]LDKK([AEEA-AEEA-γGlu-C20 diacid])AQ[Aib]AFIEFLLETGPSS[Aib]HPPPS-NH2; N-terminus assumed), in series [1], the response was half-maximal at 0.899 nM (EC50) and the “Rel. A (Relative Activity) on human primary liver cells” value was 432.81%. For the same compound, in series [2], the “Human GIP R Rel. A (Relative Activity)” value was 1392.31% and the EC50 was determined as 0.013 nM. For the same compound, in series [3], the AUC(0-t) stood at 3.1 µM·h, the highest level (Cmax) was 78.1 nM, the Tmax came to 16 h and the half-life was 15.7 h. Also, in series [4], the EC50 came to 3.24 nM and the “Rel. A (Relative Activity) on 3T3-L1 adipocyte” value is on record as 117.42%. Besides, in series [5], the “Human GLP-1R Rel. A (Relative Activity)” value amounted to 115.79% and the midpoint of the response, the EC50, lay at 0.038 nM. In series [6], the response was half-maximal at 0.173 nM (EC50) and the “Rel. A (Relative Activity) on RIN-m5F” value came to 596.53%.
